# Test system: NCI-H1417 complex spheroids, growth % test/control
# Experiment: Anticancer human tumor NCI-H1417 cell line growth inhibition [Asc];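 note: spheroids exposed to compounds for 7 days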;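 for viability, T/C: 100% = DMSO vehicle control wells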
# Conditions: for IC50: curve of first compound; for viability, T/C: stronger effect = lower value
# Outline: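 Tumor cells were grown as multicellular spheroids with stromal HUVEC and mesenchymal stem cells and treated singly or in combination. Concentrations fell in half-log steps from the clinical Cmax, or from 10 microM where none was known.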
smiles,measurement,setting,value
Cc1nc(N2CCC3(CC2)COC(C)C3N)c(CO)nc1Sc1ccnc(N)c1Cl (configuration not stated) + CNC(C)C(=O)NC1CN(S(=O)(=O)c2cccc(S(=O)(=O)N3CCC4CCC(C(=O)NC(c5ccccc5)c5ccccc5)N4C(=O)C(NC(=O)C(C)NC)C3)c2)CCC2CCC(C(=O)NC(c3ccccc3)c3ccccc3)N2C1=O,IC50,second compound 0.00316 µM,> 3000 nM
same,IC50,second compound 0.01 µM,> 3000 nM
same,IC50,second compound 0.0316 µM,> 3000 nM
same,IC50,second compound 0.1 µM,> 3000 nM
same,IC50,second compound 0.316 µM,> 3000 nM
same,IC50,second compound 1 µM,> 3000 nM
same,"viability, T/C","second compound 0.00316 µM, first compound 0.00949 µM",99.4%
same,"viability, T/C","second compound 0.00316 µM, first compound 0.03 µM",89%
same,"viability, T/C","second compound 0.00316 µM, first compound 0.0949 µM",85.8%
same,"viability, T/C","second compound 0.00316 µM, first compound 0.3 µM",81.9%
same,"viability, T/C","second compound 0.00316 µM, first compound 0.949 µM",93.4%
same,"viability, T/C","second compound 0.00316 µM, first compound 3 µM",92.6%
same,"viability, T/C","second compound 0.01 µM, first compound 0.00949 µM",91.9%
same,"viability, T/C","second compound 0.01 µM, first compound 0.03 µM",100%
same,"viability, T/C","second compound 0.01 µM, first compound 0.0949 µM",89.3%
same,"viability, T/C","second compound 0.01 µM, first compound 0.3 µM",87.8%
same,"viability, T/C","second compound 0.01 µM, first compound 0.949 µM",96.9%
same,"viability, T/C","second compound 0.01 µM, first compound 3 µM",84.1%
same,"viability, T/C","second compound 0.0316 µM, first compound 0.00949 µM",93.9%
same,"viability, T/C","second compound 0.0316 µM, first compound 0.03 µM",92.2%
same,"viability, T/C","second compound 0.0316 µM, first compound 0.0949 µM",101%
same,"viability, T/C","second compound 0.0316 µM, first compound 0.3 µM",83.6%
same,"viability, T/C","second compound 0.0316 µM, first compound 0.949 µM",98.2%
same,"viability, T/C","second compound 0.0316 µM, first compound 3 µM",79%
same,"viability, T/C","second compound 0.1 µM, first compound 0.00949 µM",87.5%
same,"viability, T/C","second compound 0.1 µM, first compound 0.03 µM",86.6%
same,"viability, T/C","second compound 0.1 µM, first compound 0.0949 µM",91.7%
same,"viability, T/C","second compound 0.1 µM, first compound 0.3 µM",86.2%
same,"viability, T/C","second compound 0.1 µM, first compound 0.949 µM",86.9%
same,"viability, T/C","second compound 0.1 µM, first compound 3 µM",86.2%
same,"viability, T/C","second compound 0.316 µM, first compound 0.00949 µM",82.8%
same,"viability, T/C","second compound 0.316 µM, first compound 0.03 µM",90.2%
same,"viability, T/C","second compound 0.316 µM, first compound 0.0949 µM",88%
same,"viability, T/C","second compound 0.316 µM, first compound 0.3 µM",88.8%
same,"viability, T/C","second compound 0.316 µM, first compound 0.949 µM",84.1%
same,"viability, T/C","second compound 0.316 µM, first compound 3 µM",94.2%
same,"viability, T/C","second compound 1 µM, first compound 0.00949 µM",78.1%
same,"viability, T/C","second compound 1 µM, first compound 0.03 µM",98.6%
same,"viability, T/C","second compound 1 µM, first compound 0.0949 µM",90.2%
same,"viability, T/C","second compound 1 µM, first compound 0.3 µM",89.8%
same,"viability, T/C","second compound 1 µM, first compound 0.949 µM",83.7%
same,"viability, T/C","second compound 1 µM, first compound 3 µM",87.7%
NC(=O)C(=Cn1cnc(-c2cc(C(F)(F)F)cc(C(F)(F)F)c2)n1)c1cncnc1 + CCN1C(C(=O)NC23CCC(C(=O)O)(CC2)CC3)C(c2cccc(Cl)c2F)C2(C(=O)Nc3cc(Cl)ccc32)C12CCCCC2,IC50,second compound 0.03 µM,128 nM
same,IC50,second compound 0.0949 µM,104 nM
same,IC50,second compound 0.3 µM,100 nM
same,IC50,second compound 0.949 µM,102 nM
same,IC50,second compound 3 µM,59.1 nM
same,"viability, T/C","second compound 0.03 µM, first compound 0.000949 µM",95.9%
same,"viability, T/C","second compound 0.03 µM, first compound 0.003 µM",112%
same,"viability, T/C","second compound 0.03 µM, first compound 0.00949 µM",93.5%
same,"viability, T/C","second compound 0.03 µM, first compound 0.03 µM",96%
same,"viability, T/C","second compound 0.03 µM, first compound 0.0949 µM",59.7%
same,"viability, T/C","second compound 0.03 µM, first compound 0.3 µM",21.9%
same,"viability, T/C","second compound 0.0949 µM, first compound 0.000949 µM",96.7%
same,"viability, T/C","second compound 0.0949 µM, first compound 0.003 µM",101%
same,"viability, T/C","second compound 0.0949 µM, first compound 0.00949 µM",97.2%
same,"viability, T/C","second compound 0.0949 µM, first compound 0.03 µM",87%
same,"viability, T/C","second compound 0.0949 µM, first compound 0.0949 µM",52.9%
same,"viability, T/C","second compound 0.0949 µM, first compound 0.3 µM",18.9%
same,"viability, T/C","second compound 0.3 µM, first compound 0.000949 µM",97.7%
same,"viability, T/C","second compound 0.3 µM, first compound 0.003 µM",97%
same,"viability, T/C","second compound 0.3 µM, first compound 0.00949 µM",96.2%
same,"viability, T/C","second compound 0.3 µM, first compound 0.03 µM",87.3%
same,"viability, T/C","second compound 0.3 µM, first compound 0.0949 µM",51.6%
same,"viability, T/C","second compound 0.3 µM, first compound 0.3 µM",19.1%
same,"viability, T/C","second compound 0.949 µM, first compound 0.000949 µM",93.6%
same,"viability, T/C","second compound 0.949 µM, first compound 0.003 µM",96.3%
same,"viability, T/C","second compound 0.949 µM, first compound 0.00949 µM",85.1%
same,"viability, T/C","second compound 0.949 µM, first compound 0.03 µM",73.9%
same,"viability, T/C","second compound 0.949 µM, first compound 0.0949 µM",52.6%
same,"viability, T/C","second compound 0.949 µM, first compound 0.3 µM",18.8%
same,"viability, T/C","second compound 3 µM, first compound 0.000949 µM",97.5%
same,"viability, T/C","second compound 3 µM, first compound 0.003 µM",98.8%
same,"viability, T/C","second compound 3 µM, first compound 0.00949 µM",81.3%
same,"viability, T/C","second compound 3 µM, first compound 0.03 µM",67.9%
same,"viability, T/C","second compound 3 µM, first compound 0.0949 µM",38.1%
same,"viability, T/C","second compound 3 µM, first compound 0.3 µM",16.3%
